As a reminder, the IC50 is the midpoint of a concentration-inhibition curve. A high value points to lower potency. What is called inhibition is the relative decrease from the control value, in per cent.

The text below walks through data of patent US12404279B2, “Deubiquitinase inhibitors and methods of use thereof” (Molecure S.A., priority 2021, dated 2025).

Counter-ions that a name gives are not always drawn.

For the first test, the target named is full-length USP7 (Homo sapiens (Human), UniProt Q93009). The experiment in a line: Enzymatic assay to determine IC50 of USP7 inhibitors (Ubiquitin-Rhodamine 110 cleavage). Type of test: biochemical. The note with it: 0.5 nM USP7, 0.5 μM Ubiquitin-Rhodamine 110, 45 min at 37° C. In a few lines: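 Enzyme: 0.5 nM full-length USP7 in HEPES pH 7.5 buffer with NaCl, DTT, BSA and Tween20, given 15 min at room temperature with DTT before compounds were added.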
Chain of full-length USP7 (Q93009 whole entry): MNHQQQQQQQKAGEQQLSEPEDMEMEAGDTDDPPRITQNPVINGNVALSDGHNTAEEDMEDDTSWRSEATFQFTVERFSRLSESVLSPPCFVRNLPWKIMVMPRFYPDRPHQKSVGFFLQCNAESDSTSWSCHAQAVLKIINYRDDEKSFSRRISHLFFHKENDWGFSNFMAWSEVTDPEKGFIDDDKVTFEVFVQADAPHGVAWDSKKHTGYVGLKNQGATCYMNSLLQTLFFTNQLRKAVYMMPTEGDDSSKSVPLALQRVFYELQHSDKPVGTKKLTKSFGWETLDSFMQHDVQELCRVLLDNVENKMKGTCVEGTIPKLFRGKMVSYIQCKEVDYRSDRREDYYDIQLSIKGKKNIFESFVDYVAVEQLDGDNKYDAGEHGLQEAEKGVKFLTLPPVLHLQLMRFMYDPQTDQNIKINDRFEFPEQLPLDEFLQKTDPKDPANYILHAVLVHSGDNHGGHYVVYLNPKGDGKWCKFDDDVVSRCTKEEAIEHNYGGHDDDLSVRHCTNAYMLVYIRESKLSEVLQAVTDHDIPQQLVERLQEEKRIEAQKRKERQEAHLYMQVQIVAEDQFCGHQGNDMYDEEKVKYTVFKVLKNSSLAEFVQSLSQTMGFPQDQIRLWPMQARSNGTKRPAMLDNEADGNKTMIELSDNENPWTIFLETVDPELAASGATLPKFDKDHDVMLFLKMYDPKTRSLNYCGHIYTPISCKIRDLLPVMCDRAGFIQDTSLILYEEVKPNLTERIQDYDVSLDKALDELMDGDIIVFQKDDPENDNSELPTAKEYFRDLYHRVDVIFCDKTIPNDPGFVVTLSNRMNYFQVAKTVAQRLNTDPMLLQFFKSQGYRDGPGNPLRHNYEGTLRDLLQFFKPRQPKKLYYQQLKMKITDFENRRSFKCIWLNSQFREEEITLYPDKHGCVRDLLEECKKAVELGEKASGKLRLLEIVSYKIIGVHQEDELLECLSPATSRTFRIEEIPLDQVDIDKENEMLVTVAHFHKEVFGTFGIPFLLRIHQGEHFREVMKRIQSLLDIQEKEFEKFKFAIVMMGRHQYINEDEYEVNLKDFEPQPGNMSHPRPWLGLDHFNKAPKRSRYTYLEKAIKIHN
For the compound `CN[C@H]1CCCN(C(=O)c2c(C)cc(C(F)(F)F)nc2-c2ccnc3cc(CN4C(=O)C5C(C4=O)C5(C)C)sc23)C1` (stereo partly drawn) [Example 144, 6,6-dimethyl-3-((7-(4-methyl-3-((S)-3-(methylamino)piperidine-1-carbonyl)-6-(trifluoromethyl)pyridin-2-yl)thieno[3,2-b]pyridin-2-yl)methyl)-3-azabicyclo[3.1.0]hexane-2,4-dione trihydrochloride], the IC50 fell in the range of 1000 to 10000 nM.
Same read-out and setting: with `Cc1nc(C(F)(F)F)cc(-c2ccnc3cc(CN4C(=O)C5C(C4=O)C5(C)C)sc23)c1NC(=O)C1CNC1` (centres unmarked) [Example 66, N-(4-(2-((6,6-dimethyl-2,4-dioxo-3-azabicyclo[3.1.0]hexan-3-yl)methyl)thieno[3,2-b]pyridin-7-yl)-2-methyl-6-(trifluoromethyl)pyridin-3-yl)azetidine-3-carboxamide 2,2,2-trifluoroacetate] the figure was 1000 to 10000 nM.
Still for that read-out and setting: with `Cc1cc(Cl)cc(-c2ccnc3cc(CN4C(=O)C5C(C4=O)C5(C)C)sc23)c1NC1CCNC1` (centres unmarked) [Example 175, 3-((7-(5-chloro-3-methyl-2-(pyrrolidin-3-ylamino)phenyl)thieno[3,2-b]pyridin-2-yl)methyl)-6,6-dimethyl-3-azabicyclo[3.1.0]hexane-2,4-dione hydrochloride] the figure was under 500 nM; with `Cc1nc(C(F)(F)F)cc(-c2ccnc3cc(CN4C(=O)C5C(C4=O)C5(C)C)sc23)c1NC(=O)C1CCNC1` (racemic) [Example 64, N-(4-(2-((6,6-dimethyl-2,4-dioxo-3-azabicyclo[3.1.0]hexan-3-yl)methyl)thieno[3,2-b]pyridin-7-yl)-2-methyl-6-(trifluoromethyl)pyridin-3-yl)pyrrolidine-3-carboxamide 2,2,2-trifluoroacetate], 1000 to 10000 nM; with `Cc1cc(C(F)(F)F)nc(-c2ccnc3cc(CN4C(=O)C5C(C4=O)C5(C)C)sc23)c1C(=O)NC1CNC1` (centres unmarked) [Example 70, N-(azetidin-3-yl)-2-(2-((6,6-dimethyl-2,4-dioxo-3-azabicyclo[3.1.0]hexan-3-yl)methyl)thieno[3,2-b]pyridin-7-yl)-4-methyl-6-(trifluoromethyl)nicotinamide dihydrochloride], 500 to 1000 nM.
Same read-out and setting: the value for `Cc1cc(C(F)(F)F)nc(-c2ccnc3cc(CN4C(=O)C5C(C4=O)C5(C)C)sc23)c1C(=O)N1CC[C@H](CN)C1` (stereo partly drawn) [Example 115, 3-((7-(3-((R)-3-(aminomethyl)pyrrolidine-1-carbonyl)-4-methyl-6-(trifluoromethyl)pyridin-2-yl)thieno[3,2-b]pyridin-2-yl)methyl)-6,6-dimethyl-3-azabicyclo[3.1.0]hexane-2,4-dione dihydrochloride] was 500 to 1000 nM.
`Cc1cc(Cl)cc(-c2ccnc3sccc23)c1O[C@H]1CCCNC1` [Example 31, (S)-4-(5-chloro-3-methyl-2-(piperidin-3-yloxy)phenyl)thieno[2,3-b]pyridine 2,2,2-trifluoroacetate] showed an IC50 of 1000 to 10000 nM.
Same read-out and setting: the value for `Cc1cc(C(F)(F)F)nc(-c2ccnc3cc(CN4C(=O)C5C(C4=O)C5(C)C)sc23)c1C(=O)N1CCC(CNC(C)C)C1` (racemic) [Example 140, 3-((7-(3-(3-((isopropylamino)methyl)pyrrolidine-1-carbonyl)-4-methyl-6-(trifluoromethyl)pyridin-2-yl)thieno[3,2-b]pyridin-2-yl)methyl)-6,6-dimethyl-3-azabicyclo[3.1.0]hexane-2,4-dione trihydrochloride] was under 500 nM.
On the same count and under the same terms, the value for “6,6-dimethyl-3-((7-(2-methyl-3-(pyrrolidin-3-ylmethyl)-6-(trifluoromethyl)pyridin-4-yl)thieno[3,2-b]pyridin-2-yl)methyl)-3-azabicyclo[3.1.0]hexane-2,4-dione 2,2,2-trifluoroacetate [Example 88]” was under 500 nM.
On the same count and under the same terms, with `Cc1cc(C(F)(F)F)nc(-c2ccnc3cc(CN4C(=O)C5C(C4=O)C5(C)C)sc23)c1C(=O)N1CCNCC1` (centres unmarked) [Example 76, 6,6-dimethyl-3-((7-(4-methyl-3-(piperazine-1-carbonyl)-6-(trifluoromethyl)pyridin-2-yl)thieno[3,2-b]pyridin-2-yl)methyl)-3-azabicyclo[3.1.0]hexane-2,4-dione dihydrochloride] the figure was under 500 nM; with `Cc1nc(C(F)(F)F)cc(-c2ccnc3cc(CN4C(=O)C5C(C4=O)C5(C)C)sc23)c1NC(=O)C1CCN(C(=O)C(F)(F)F)C1` (racemic) [Example 65, N-(4-(2-((6,6-dimethyl-2,4-dioxo-3-azabicyclo[3.1.0]hexan-3-yl)methyl)thieno[3,2-b]pyridin-7-yl)-2-methyl-6-(trifluoromethyl)pyridin-3-yl)-1-(2,2,2-trifluoroacetyl)pyrrolidine-3-carboxamide 2,2,2-trifluoroacetate], over 10000 nM.

The test is the same for the next values; noted with them: at 1 μM of the test compound; given where IC50 not determined yet; read-out: percent value of inhibition of USP7 activity.
Turning to `Cc1cc(C#N)nc(-c2ccnc3cc(CN4C(=O)C5C(C4=O)C5(C)C)sc23)c1C(=O)N1CC(N(C)C)C1` (centres unmarked) [Example 43, 6-(2-((6,6-dimethyl-2,4-dioxo-3-azabicyclo[3.1.0]hexan-3-yl)methyl)thieno[3,2-b]pyridin-7-yl)-5-(3-(dimethylamino)azetidine-1-carbonyl)-4-methylpicolinonitrile], the inhibition at 1 µM is 50 to 70%.
Same read-out and setting: the value for `CCOC(=O)c1c(C(F)(F)F)c(C)n(C[C@@H]2CNCCO2)c1-c1ccnc2cc(CN3C(=O)C4C(C3=O)C4(C)C)sc12` (stereo partly drawn) [Example 155, ethyl 2-(2-((6,6-dimethyl-2,4-dioxo-3-azabicyclo[3.1.0]hexan-3-yl)methyl)thieno[3,2-b]pyridin-7-yl)-5-methyl-1-(((S)-morpholin-2-yl)methyl)-4-(trifluoromethyl)-1H-pyrrole-3-carboxylate hydrochloride] was under 20%; that for `Cc1cc(C(F)(F)F)nc(-c2ccnc3cc(CN4C(=O)C5C(C4=O)C5(C)C)sc23)c1C(=O)N1CC[C@H](C(C)N)C1` (stereo partly drawn) [Example 138, 3-((7-(3-((3S)-3-(1-aminoethyl)pyrrolidine-1-carbonyl)-4-methyl-6-(trifluoromethyl)pyridin-2-yl)thieno[3,2-b]pyridin-2-yl)methyl)-6,6-dimethyl-3-azabicyclo[3.1.0]hexane-2,4-dione trihydrochloride] was 50 to 70%; that for `Cc1cc(Cl)cc(-c2ccnc3c2nc(C)n3C)c1O[C@H]1CCCNC1` [Example 68, (S)-7-(5-chloro-3-methyl-2-(piperidin-3-yloxy)phenyl)-2,3-dimethyl-3H-imidazo[4,5-b]pyridine hydrochloride] was under 20%.
Regarding `Cc1nc2c(-c3cc(Cl)cc(C)c3O[C@H]3CCCNC3)ccnc2[nH]1` [Example 67, (S)-7-(5-chloro-3-methyl-2-(piperidin-3-yloxy)phenyl)-2-methyl-3H-imidazo[4,5-b]pyridine hydrochloride], the inhibition at 1 µM was under 20%.
The same measure, in the same setting: the value for `Cc1nc(C#N)cc(-c2ccnc3cc(CN4C(=O)C5C(C4=O)C5(C)C)sc23)c1C(=O)N1CCC(F)(F)CC1` (centres unmarked) [Example 13, 5-(4,4-difluoropiperidine-1-carbonyl)-4-(2-((6,6-dimethyl-2,4-dioxo-3-azabicyclo[3.1.0]hexan-3-yl)methyl)thieno[3,2-b]pyridin-7-yl)-6-methylpicolinonitrile 2,2,2-trifluoroacetate] was 20 to 49%.
